Test results from patent US10464890B2, “PGAM1 inhibitors and methods related thereto” (Emory University, priority 2011, dated 2019).

Assays:
[1] = test system: human leukemia KG1a cells; assay: Cell proliferation/viability assay, KG1a; assay type: cell-based; conditions: increasing concentrations (72h)
Procedure: For leukemia cell proliferation assay, 10×10^4 cells were seeded in non-tissue culture coated 6-well plate and incubated at 37° C. for indicated times. Cell numbers were counted by trypan blue exclusion under a microscope (×40) at indicated times and the percentage of cell proliferation was determined by comparing PGAM1 knockdown cells to pLKO.1 vector expressing cells. […] Cell viability was determined by counting drug-treated cells compared to DMSO-treated control cells with trypan blue exclusion under a microscope (×40) and by using CellTiter96Aqueous One solution proliferation kit (Promega). For adherent cell proliferation assay such as H1299 and MDA-MB231 cells, 5×10^4 cells were seeded in 6-well plate 24 h before the assay starts and were cultured at 37° C. 24 h after seeding, cells were treated with 5 μM Methyl-2PG and incubated at 37° C. for indicated times. Cell proliferation was determined by the increase in cell number indicated times after the treatment starts compared to that at the treatment starts for each cell line (T=0). Cell numbers were counted by trypan blue exclusion under a microscope (×40). […] Cell viability was determined by counting drug-treated cells compared to DMSO-treated control cells with trypan blue exclusion under a microscope (×40). […] Cell viability was determined by using CellTiter96Aqueous One solution proliferation kit (Promega).

[2] = target: T1, purified human PGAM1 proteins (recombinant PGAM1) (Homo sapiens, UniProt P18669); assay: In vitro PGAM1 enzyme assay (coupled enolase/PKM1/LDH, NADH oxidation); assay type: biochemical; conditions: for screening outcome (PGAM1 primary screen, enolase secondary screen): library screen with coupled PGAM1 and enolase assays; for relative PGAM1 inhibitory potency in vitro: purified recombinant PGAM1, comparison among alizarin, alizarin Red S and PGMI-004A
T1 construct: (His)6; made in house; host or cells: E. coli BL21(DE3)pLysS (pET53 vector)
T1 sequence (P18669 whole entry): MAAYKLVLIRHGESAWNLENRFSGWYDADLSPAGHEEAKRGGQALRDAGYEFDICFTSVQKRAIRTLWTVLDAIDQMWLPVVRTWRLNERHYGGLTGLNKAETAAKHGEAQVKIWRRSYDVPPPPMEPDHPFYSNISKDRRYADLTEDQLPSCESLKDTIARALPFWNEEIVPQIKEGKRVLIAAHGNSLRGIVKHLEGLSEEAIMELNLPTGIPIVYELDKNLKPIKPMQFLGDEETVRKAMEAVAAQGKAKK
Procedure: An in vitro PGAM1 assay was performed as primary screening. PGAM1 enzyme mix was prepared containing 100 mM Tris-HCl, 100 mM KCl, 5 mM MgCl2, 1 mM ADP, 0.2 mM NADH, 5 mg/ml recombinant PGAM1, 0.5 units/ml enolase, 0.5 units/ml recombinant pyruvate kinase M1, and 0.1 units/ml recombinant LDH. 3-PG was added last at the final concentration of 2 mM to initiate the reaction. […] An in vitro enolase assay as secondary screening was also performed. Enolase enzyme mix was prepared containing 100 mM Tris-HCl, 100 mM KCl, 5 mM MgCl2, 1 mM ADP, 0.2 mM NADH, 0.5 units/ml enolase, 0.5 units/ml recombinant pyruvate kinase M1, and 0.1 units/ml recombinant LDH. 2-PG was added last at the final concentration of 2 mM to initiate the reaction. […] Assay was carried out in Tris-HCl buffer (10 mM Tris, pH 7.4, 100 mM NaCl) containing 5% DMSO.
PGAM1 activity was measured by multiple enzymes coupled assay. PGAM1 enzyme mix containing 100 mM Tris-HCl, 100 mM KCl, 5 mM MgCl2, 1 mM ADP, 0.2 mM NADH, 5 mg/ml recombinant PGAM1, 0.5 units/ml enolase, 0.5 units/ml recombinant pyruvate kinase M1, and 0.1 units/ml recombinant LDH was prepared. 3-PG was added last at a final concentration of 2 mM to initiate the reaction.

[3] = test system: H1299 cells; assay: Cell proliferation assay, H1299; assay type: cell-based, human; conditions: H1299 cells
Procedure: For leukemia cell proliferation assay, 10×10^4 cells were seeded in non-tissue culture coated 6-well plate and incubated at 37° C. for indicated times. Cell numbers were counted by trypan blue exclusion under a microscope (×40) at indicated times and the percentage of cell proliferation was determined by comparing PGAM1 knockdown cells to pLKO.1 vector expressing cells. […] Cell viability was determined by counting drug-treated cells compared to DMSO-treated control cells with trypan blue exclusion under a microscope (×40) and by using CellTiter96Aqueous One solution proliferation kit (Promega). For adherent cell proliferation assay such as H1299 and MDA-MB231 cells, 5×10^4 cells were seeded in 6-well plate 24 h before the assay starts and were cultured at 37° C. 24 h after seeding, cells were treated with 5 μM Methyl-2PG and incubated at 37° C. for indicated times. Cell proliferation was determined by the increase in cell number indicated times after the treatment starts compared to that at the treatment starts for each cell line (T=0). Cell numbers were counted by trypan blue exclusion under a microscope (×40). For adherent cell viability assay with trypan blue exclusion, 5×10^4 cells were seeded in 6-well plate 24 h before the assay starts and were cultured at 37° C. […] Cell viability was determined by counting drug-treated cells compared to DMSO-treated control cells with trypan blue exclusion under a microscope (×40). For MTT cell viability assay of adherent cells, 5×10^3 cells were seeded in 96-well plate 24 h before the assay starts and were cultured at 37° C. […] Cell viability was determined by using CellTiter96Aqueous One solution proliferation kit (Promega).

[4] = target: PGAM1 (Homo sapiens, UniProt P18669); conditions: cited from earlier work
Sequence of PGAM1 (P18669 whole entry): as above

[5] = test system: Y26 phosphorylation of PGAM1; assay: PGAM1 Y26 phosphorylation in human cancer cell lines; assay type: cell-based; conditions: pertinent human cancer cell lines (KG1a, HEL)
[6] = target: T2, G6PD (H1299 cell lysates or rG6PD) (Homo sapiens, UniProt P11413); assay: G6PD enzyme assay; assay type: biochemical; conditions: increasing concentrations of 3-PG
T2 construct: endogenous in cells; host or cells: H1299 cell lysates; also recombinant rG6PD of unstated origin
T2 sequence (P11413 whole entry): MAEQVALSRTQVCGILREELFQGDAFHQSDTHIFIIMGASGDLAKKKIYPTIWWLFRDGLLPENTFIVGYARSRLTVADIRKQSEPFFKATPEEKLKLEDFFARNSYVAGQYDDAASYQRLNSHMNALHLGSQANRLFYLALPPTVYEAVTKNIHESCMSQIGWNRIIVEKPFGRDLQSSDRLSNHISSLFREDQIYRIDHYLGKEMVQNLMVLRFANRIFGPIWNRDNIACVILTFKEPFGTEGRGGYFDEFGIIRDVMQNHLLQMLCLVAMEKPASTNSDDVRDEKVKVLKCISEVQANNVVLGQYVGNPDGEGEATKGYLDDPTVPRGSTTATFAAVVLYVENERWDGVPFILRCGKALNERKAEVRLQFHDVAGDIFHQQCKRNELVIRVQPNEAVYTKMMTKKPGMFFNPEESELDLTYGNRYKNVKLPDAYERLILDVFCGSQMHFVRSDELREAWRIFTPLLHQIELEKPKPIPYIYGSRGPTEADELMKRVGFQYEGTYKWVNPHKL
Procedure: (§1) G6PD activity was determined by the NADPH production rate from G6PD and 6PGD, then subtracting that of 6PGD, since a product of G6PD, 6-phosphogluconolactone, is rapidly hydrolyzed to a substrate of 6PGD, 6-phosphogluconate, in cells. To obtain the combined dehydrogenase activity, substrates for both dehydrogenase enzymes were added to a cuvette. In another cuvette, substrates for the second enzyme, 6PGD, were added to obtain the activity of this enzyme. Substrate concentrations were as follows: 0.2 mM glucose 6-phosphate, 0.2 mM 6-phosphogluconate, and 0.1 mM NADP^+. 10 μg of cell lysates or 1 μg of recombinant protein were added to a cuvette containing buffer (50 mM Tris, 1 mM MgCl2, pH 8.1) and then the reaction was initiated by NADP^+. The increase of absorbance at 341 nm was measured by a DU800 spectrophotometer (Beckman).

[7] = target: T3, 6PGD (H1299 cell lysates or recombinant 6PGD) (Homo sapiens, UniProt P52209); assay: 6PGD enzyme assay; assay type: biochemical
T3 construct: endogenous in cells; host or cells: H1299 cell lysates; part of the results with recombinant 6PGD of unstated origin
T3 sequence (P52209 1-483): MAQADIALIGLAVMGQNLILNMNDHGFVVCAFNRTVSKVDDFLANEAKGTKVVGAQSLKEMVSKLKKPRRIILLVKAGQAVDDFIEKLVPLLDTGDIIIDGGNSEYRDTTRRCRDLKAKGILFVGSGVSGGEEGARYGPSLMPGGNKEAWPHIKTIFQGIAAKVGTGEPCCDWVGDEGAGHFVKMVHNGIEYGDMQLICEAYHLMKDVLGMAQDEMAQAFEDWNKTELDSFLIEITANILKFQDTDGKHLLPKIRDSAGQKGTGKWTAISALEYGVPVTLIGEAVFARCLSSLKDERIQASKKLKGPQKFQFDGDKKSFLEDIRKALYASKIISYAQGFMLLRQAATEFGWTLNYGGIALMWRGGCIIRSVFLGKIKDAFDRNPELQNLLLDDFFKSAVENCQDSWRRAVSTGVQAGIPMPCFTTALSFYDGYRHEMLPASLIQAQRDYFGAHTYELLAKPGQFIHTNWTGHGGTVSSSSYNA
Procedure: as §1

[8] = target: T4, 6PGD (Homo sapiens, UniProt P52209); assay type: binding
T4 sequence (P52209 1-483): T3 sequence (P52209 1-483)
Procedure: In brief, thermal shift assay of compound-protein interaction was performed in 384-well PCR plates with various compound concentrations and 200 μg/ml protein in a buffer solution (20 mM Tris-HCl, 100 mM NaCl, pH 7.4). SYPRO orange was used as a dye to monitor the fluorescence change at 610 nm. Small molecules were dissolved in DMSO and added to protein solution. Final DMSO concentration of solution is 1%. Dissociation constants (Kds) for protein-ligand interaction were calculated using the method as described.
The fluorescence intensity data were fitted to Eq. (1) to obtain ΔHu, ΔCpu, and Tm by nonlinear regression using the program Prism:
The thermal unfolding parameters for 6PGD and PGAM1 alone were determined from 4 control wells, each containing 0.2 mg/mL protein.

[9] = target: T5, PHGDH (PGAM1 knockdown cell lysates or recombinant PHGDH) (Homo sapiens, UniProt O43175); assay: PHGDH enzyme assay; assay type: biochemical
T5 construct: endogenous in cells; also recombinant rPHGDH of unstated origin
T5 sequence (O43175 1-533): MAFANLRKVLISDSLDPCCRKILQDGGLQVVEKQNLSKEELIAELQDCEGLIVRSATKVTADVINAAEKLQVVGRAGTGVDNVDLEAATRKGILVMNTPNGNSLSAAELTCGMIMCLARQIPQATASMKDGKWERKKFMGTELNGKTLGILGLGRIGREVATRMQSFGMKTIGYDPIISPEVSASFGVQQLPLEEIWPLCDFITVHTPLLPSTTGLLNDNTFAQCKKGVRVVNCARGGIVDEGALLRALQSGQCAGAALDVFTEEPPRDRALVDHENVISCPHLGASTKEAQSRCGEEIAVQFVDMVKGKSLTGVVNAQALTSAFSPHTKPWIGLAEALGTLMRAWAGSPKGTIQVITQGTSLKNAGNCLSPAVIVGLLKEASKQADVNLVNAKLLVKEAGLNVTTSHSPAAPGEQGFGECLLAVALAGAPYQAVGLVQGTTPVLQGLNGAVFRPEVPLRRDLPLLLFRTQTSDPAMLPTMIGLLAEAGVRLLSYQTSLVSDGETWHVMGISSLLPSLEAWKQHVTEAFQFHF
Procedure: PHGDH activity was spectrophotometrically measured as described previously. PHGDH enzyme buffer containing 200 mM Tris-HCl (pH8.1), 400 mM KCl, 0.6 mM NAD, 2 mM GSH, 10 mM EDTA was mixed with cell lysates or recombinant PHGDH protein. The reaction was initiated by the addition of 3-PG to a final concentration of 10 mM and followed by measuring the increase in absorbance at 340 nm over a 10 min period.

## O=C1c2ccccc2C(=O)c2c1ccc(O)c2O [alizarin, 1,2-Dihydroxyanthraquinone]
[1]
  cell proliferation: decreased proliferation
[2]
  screening outcome (PGAM1 primary screen, enolase secondary screen): identified as PGAM1 inhibitors
[3]
  cell proliferation: decreased proliferation

## C#CCCCC(=O)OC(C)(C)C1CCC2(CO2)C(OC(=O)NC(Cc2c[nH]c3ccccc23)C(=O)OCc2ccccc2)C1 (stereo not shown) [MJE3]
[4]; Evans et al., 2007, 2005
  PGAM1 activity (reported): specifically inhibits PGAM1 activity exclusively in intact cells
[4]
  cancer cell proliferation (reported): attenuates cancer cell proliferation

## CN1CCN(c2ccc3nc(-c4c(N)c5c(F)cccc5[nH]c4=O)[nH]c3c2)CC1 [TKI258]
[5]
  Y26 phosphorylation of PGAM1: decreased Y26 phosphorylation of PGAM1

## O=C(O)[C@H](O)COP(=O)(O)O [3-PG, 3-phosphoglycerate]
[6]
  G6PD activity: did not significantly affect G6PD activity
[7]; Dixon plot, read-out: inhibition constant (Ki) for 6PGD
  Ki: 489 ± 13 µM
[7]; Lineweaver-Burk plot, ~250 μM 3-PG, ~35 μM 6-PG
  mode of 6PGD inhibition: competitive inhibitor
[7]; ~60 μM 3-PG (physiological), H1299 cell lysates or recombinant 6PGD
  6PGD enzyme activity: do not significantly affect 6PGD enzyme activity
[7]; ~250 μM 3-PG, H1299 cell lysates or recombinant 6PGD
  6PGD enzyme activity: decreased enzyme activity of 6PGD
[8]; increasing concentrations, 100 μM to 25 mM
  6PGD melting temperature (Tm): raises 6PGD melting temperature (Tm) in a dose-dependent manner
[8]; read-out: Kd for interaction with 6PGD
  Kd: 460 ± 40 µM

## N#C/C(=C/c1ccc(O)c(O)c1)C(=O)NCc1ccccc1 [AG490]
[5]
  Y26 phosphorylation of PGAM1: decreased Y26 phosphorylation of PGAM1

## O=C(O)[C@@H](CO)OP(=O)(O)O [2-PG, 2-phosphoglycerate]
[7]; 2-PG treatment, H1299 cell lysates or r6PGD
  6PGD enzyme activity: did not affect 6PGD enzyme activity
[9]; increasing concentrations of 2-PG
  enzyme activity of recombinant PHGDH (rPHGDH): increased enzyme activity of recombinant PHGDH
[9]; ~15 μM 2-PG
  PHGDH activity: did not significantly affect PHGDH activity
[9]; ~45 μM or ~60 μM 2-PG, H1299 PGAM1 knockdown cell lysates
  PHGDH enzyme activity: higher PHGDH enzyme activity

## O=C1c2ccccc2C(=O)c2c1cc(S(=O)(=O)O)c(O)c2O [alizarin Red S, 3,4-dihydroxy-9,10-dioxo-9,10-dihydroanthracene-2-sulfonic acid]
[2]
  relative PGAM1 inhibitory potency in vitro: more potent PGAM1 inhibitory potential compared to alizarin
[2]; listed as Alizarin Red S
  relative PGAM1 inhibitory potency in vitro: more potent PGAM1 inhibitor

## Oc1c(Cl)cc(Cl)c(Cl)c1Cc1c(O)c(Cl)cc(Cl)c1Cl [hexachlorophene]
[2]
  screening outcome (PGAM1 primary screen, enolase secondary screen): identified as PGAM1 inhibitors

## O=CC=Cc1ccc(O)cc1 [p-hydroxycinnamaldehyde]
[2]
  screening outcome (PGAM1 primary screen, enolase secondary screen): identified as PGAM1 inhibitors
